Experimental data published in US20100119599A1 (ARCHER PHARMACEUTICALS, INC., priority 2006, published 2010).

Experiments:
[1] = system: Aβ1-40; test: Measurement of Aβ1-40 in culture medium of 7W WT APP751 CHO cells by ELISA; format: cell-based, Chinese hamster; settings: Cricetulus griseus; Table 1; 5 μM test compound; CHO cells stably transfected with human APP751; culture medium, ELISA; control DMSO; 0 = no detectable amount
[2] = system: Aβ1-42; test: Measurement of Aβ1-42 in culture medium of 7W WT APP751 CHO cells by ELISA; format: cell-based, Chinese hamster; settings: Cricetulus griseus; Table 1; 5 μM test compound; CHO cells stably transfected with human APP751; culture medium, ELISA; control DMSO; 0 = no detectable amount; read-out: Aβ1-42 (% of control)
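Further: 5 µM test compound but RI-coded compounds at 10 µM for 24 hours.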

SMILES | activity at 5 µM [1] | activity at 5 µM [2]
COC(=O)C1=C(C)NC2=C(C(=O)CCC2)C1c1cccc(OC)c1OC (stereo not drawn) [ST013140, methyl 4-(2,3-dimethoxyphenyl)-2-methyl-5-oxo-1,4,6,7,8-pentahydroquinoline-3-carboxylate] | 96% | 51.1%
COC(=O)C1=C(C)NC2=C(C(=O)CCC2)C1c1cc(Br)c(O)c(OC)c1 (stereo not drawn) [ST013141, methyl 4-(3-bromo-4-hydroxy-5-methoxyphenyl)-2-methyl-5-oxo-1,4,6,7,8-pentahydroquinoline-3-carboxylate] | 89.7% | 23.7%
COC(=O)C1=C(C)NC2=C(C(=O)CC(C)(C)C2)C1c1cccc(Br)c1 (stereo not drawn) [ST013145, methyl 4-(3-bromophenyl)-2,7,7-trimethyl-5-oxo-1,4,6,7,8-pentahydroquinoline-3-carboxylate] | 13.9% | 43.3%
COC(=O)C1=C(C)NC2=C(C(=O)CCC2)C1c1ccc(OC)c(OC)c1OC (stereo not drawn) [ST013147, methyl 2-methyl-5-oxo-4-(2,3,4-trimethoxyphenyl)-1,4,6,7,8-pentahydroquinoline-3-carboxylate] | 72% | 45.4%
CCOC(=O)C1=C(C)NC2=C(C(=O)CCC2)C1c1cccc(O)c1 (stereo not drawn) [ST013148, ethyl 4-(3-hydroxyphenyl)-2-methyl-5-oxo-1,4,6,7,8-pentahydroquinoline-3-carboxylate] | 66.1% | 49.9%
COC(=O)C1=C(C)NC2=C(C(=O)CC(C)(C)C2)C1c1cccc(Cl)c1Cl (stereo not drawn) [ST013151, methyl 4-(2,3-dichlorophenyl)-2,7,7-trimethyl-5-oxo-1,4,6,7,8-pentahydroquinoline-3-carboxylate] | 52.1% | 61.6%
CCCCCOC(=O)C1=C(C)NC2=C(C(=O)CCC2)C1c1cccc(Cl)c1 (stereo not drawn) [ST013152, pentyl 4-(3-chlorophenyl)-2-methyl-5-oxo-1,4,6,7,8-pentahydroquinoline-3-carboxylate] | 22% | 33.2%
COC(=O)C1=C(C)NC2=C(C(=O)CCC2)C1c1cccc(OC)c1 (stereo not drawn) [ST013153, methyl 4-(3-methoxyphenyl)-2-methyl-5-oxo-1,4,6,7,8-pentahydroquinoline-3-carboxylate] | 91.4% | 66.3%
CC1=C(C(=O)OC2CCCC2)C(c2cccc(Cl)c2)C2=C(CCCC2=O)N1 (stereo not drawn) [ST013156, cyclopentyl 4-(3-chlorophenyl)-2-methyl-5-oxo-1,4,6,7,8-pentahydroquinoline-3-carboxylate] | 0% | 13.7%
CCOC(=O)C1=C(C)NC2=C(C(=O)CCC2)C1c1ccc(O)c(OCC)c1 (stereo not drawn) [ST013158, ethyl 4-(3-ethoxy-4-hydroxyphenyl)-2-methyl-5-oxo-1,4,6,7,8-pentahydroquinoline-3-carboxylate] | 75% | 67.8%
CCOC(=O)C1=C(C)NC2=C(C(=O)CCC2)C1c1cccc(F)c1 (stereo not drawn) [ST013162, ethyl 4-(3-fluorophenyl)-2-methyl-5-oxo-1,4,6,7,8-pentahydroquinoline-3-carboxylate] | 33.4% | 36.3%
CCCCCOC(=O)C1=C(C)NC2=C(C(=O)CCC2)C1c1cc(Br)c(O)c(OC)c1 (stereo not drawn) [ST013170, pentyl 4-(3-bromo-4-hydroxy-5-methoxyphenyl)-2-methyl-5-oxo-1,4,6,7,8-pentahydroquinoline-3-carboxylate] | 62.8% | 49.8%
CCOC(=O)C1=C(C)NC2=C(C(=O)CCC2)C1c1ccc(C(=O)OC)cc1 (stereo not drawn) [ST013173, methyl 4-[3-(ethoxycarbonyl)-2-methyl-5-oxo-4-1,4,6,7,8-pentahydroquinolyl]benzoate] | 39.2% | 78.1%
CC1=C(C(=O)OC(C)C)C(c2cccc(O)c2)C2=C(CCCC2=O)N1 (stereo not drawn) [ST013174, methylethyl 4-(3-hydroxyphenyl)-2-methyl-5-oxo-1,4,6,7,8-pentahydroquinoline-3-carboxylate] | 34.3% | 73.1%
C=CCOC(=O)C1=C(C)NC2=C(C(=O)CCC2)C1c1ccc(OCCC)c(OC)c1 (stereo not drawn) [ST013183, prop-2-enyl 4-(3-methoxy-4-propoxyphenyl)-2-methyl-5-oxo-1,4,6,7,8-pentahydroquinoline-3-carboxylate] | 78.7% | 66.3%
CCOC(=O)C1=C(C)NC2=C(C(=O)CC(C)(C)C2)C1c1cccc(OC)c1OC (stereo not drawn) [ST013184, ethyl 4-(2,3-dimethoxyphenyl)-2,7,7-trimethyl-5-oxo-1,4,6,7,8-pentahydroquinoline-3-carboxylate] | 73.7% | 60.3%
CC1=C(C(=O)OC2CCCCC2)C(c2cccc(Cl)c2Cl)C2=C(CCCC2=O)N1 (stereo not drawn) [ST013188, cyclohexyl 4-(2,3-dichlorophenyl)-2-methyl-5-oxo-1,4,6,7,8-pentahydroquinoline-3-carboxylate] | 0% | 47.1%

SMILES | activity at 5 µM [1] | activity at 5 µM [2]
CCc1ccc(C2C(C(=O)OC(C)C)=C(C)NC3=C2C(=O)CCC3)cc1 (stereo not drawn) [ST013191, methylethyl 4-(4-ethylphenyl)-2-methyl-5-oxo-1,4,6,7,8-pentahydroquinoline-3-carboxylate] | 33.4% | 98%
CC(=O)Oc1ccc(C2C(C(=O)OC(C)C)=C(C)NC3=C2C(=O)CCC3)cc1 (stereo not drawn) [ST013192, 4-{2-methyl-3-[(methylethyl)oxycarbonyl]-5-oxo-4-1,4,6,7,8-pentahydroquinolyl} phenyl acetate] | 55.5% | 82.5%
C=CCOC(=O)C1=C(C)NC2=C(C(=O)CCC2)C1c1cccc(OC)c1 (stereo not drawn) [ST013199, prop-2-enyl 4-(3-methoxyphenyl)-2-methyl-5-oxo-1,4,6,7,8-pentahydroquinoline-3-carboxylate] | 68.5% | 86.7%
CCCOC(=O)C1=C(C)NC2=C(C(=O)CC(C)(C)C2)C1c1cccc(Cl)c1Cl (stereo not drawn) [ST013206, propyl 4-(2,3-dichiorophenyl)-2,7,7-trimethyl-5-oxo-1,4,6,7,8-pentahydroquinoline-3-carboxylate] | 0% | 62.5%
CCCCOC(=O)C1=C(C)NC2=C(C(=O)CC(C)(C)C2)C1c1cccc2ccccc12 (stereo not drawn) [ST013208, butyl 2,7,7-tnmethyl-4-naphthyl-5-oxo-1,4,6,7,8-pentahydroquinoline-3-carboxylate] | 0% | 20.2%
CC1=C(C(=O)OCc2ccccc2)C(c2ccc(N(C)C)cc2)C2=C(CCCC2=O)N1 (stereo not drawn) [ST013212, phenylmethyl 4-[4-(dimethylamino)phenyl]-2-methyl-5-oxo-1,4,6,7,8-pentahydroquinoline-3-carboxylate] | 50.8% | 93.7%
CCOC(=O)C1=C(C)NC2=C(C(=O)CCC2)C1c1ccc(OC)cc1OC (stereo not drawn) [ST013213, ethyl 4-(2,4-dimethoxyphenyl)-2-methyl-5-oxo-1,4,6,7,8-pentahydroquinoline-3-carboxylate] | 78.2% | 69.3%
CC1=C(C(=O)OCc2ccccc2)C(c2ccc([N+](=O)[O-])cc2)C2=C(CC(C)(C)CC2=O)N1 (stereo not drawn) [ST013214, phenylmethyl 2,7,7-trimethyl-4-(4-nitrophenyl)-5-oxo-1,4,6,7,8-pentahydroquinoline-3-carboxylate] | 0% | 4.36%
CC1=C(C(=O)OCc2ccccc2)C(c2ccccc2)C2=C(CC(C)(C)CC2=O)N1 (stereo not drawn) [ST013215, phenylmethyl 2,7,7-trimethyl-5-oxo-4-phenyl-1,4,6,7,8-pentahydroquinoline-3-carboxylate] | 0% | 88.6%
CCOC(=O)C1=C(C)NC2=C(C(=O)CCC2)C1c1ccccc1OCc1ccccc1 (stereo not drawn) [ST013216, ethyl 2-methyl-5-oxo-4-[2-(phenylmethoxy)phenyl]-1,4,6,7,8-pentahydroquinoline-3-carboxylate] | 0% | 88.8%
CCc1ccc(C2C(C(=O)OC3CCCC3)=C(C)NC3=C2C(=O)CC(C)(C)C3)cc1 (stereo not drawn) [ST013227, cyclopentyl 4-(4-ethylphenyl)-2,7,7-trimethyl-5-oxo-1,4,6,7,8-pentahydroquinoline-3-carboxylate] | 0% | 92.7%
CC1=C(C(=O)OCc2ccccc2)C(c2cccc(Cl)c2Cl)C2=C(CC(C)(C)CC2=O)N1 (stereo not drawn) [ST013230, phenylmethyl 4-(2,3-dichlorophenyl)-2,7,7-trimethyl-5-oxo-1,4,6,7,8-pentahydroquinoline-3-carboxylate] | 0% | 69.5%
CC1=C(C(=O)OC2CCCCC2)C(c2ccccc2Cl)C2=C(CC(C)(C)CC2=O)N1 (stereo not drawn) [ST013235, cyclohexyl 4-(2-chlorophenyl)-2,7,7-trimethyl-5-oxo-1,4,6,7,8-pentahydroquinoline-3-carboxylate] | 0% | 43%
CCCCOC(=O)C1=C(C)NC2=C(C(=O)CC(C)(C)C2)C1c1cccc(Cl)c1Cl (stereo not drawn) [ST013239, butyl 4-(2,3-dichlorophenyl)-2,7,7-trimethyl-5-oxo-1,4,6,7,8-pentahydroquinoline-3-carboxylate] | 0% | 59.5%
CCOc1cc(C2C(C(=O)OCc3ccccc3)=C(C)NC3=C2C(=O)CCC3)ccc1O (stereo not drawn) [ST013242, phenylmethyl 4-(3-ethoxy-4-hydroxyphenyl)-2-methyl-5-oxo-1,4,6,7,8-pentahydroquinoline-3-carboxylate] | 81.2% | 64.4%
CCCOC(=O)C1=C(C)NC2=C(C(=O)CCC2)C1c1ccc(C)cc1 (stereo not drawn) [ST013247, propyl 2-methyl-4-(4-methylphenyl)-5-oxo-1,4,6,7,8-pentahydroquinoline-3-carboxylate] | 35.5% | 55%
